Values joined by “and” are separate entries in the source; they are usually repeats but may differ in a detail not shown here. Identical values can stand only once.
How the values were obtained:
[1] = test system: ANN/1203/04 (H5N1) highly pathogenic avian influenza virus; set-up: species or system ferret; conditions: in vivo, 25 mg/kg
[2] = test system: A/California/7/09 (H1N1) (H1-CA09); conditions: mouse, in vivo

CCOC(=O)C1=C[C@@H](OC(CC)CC)[C@H](NC(C)=O)[C@@H](N)C1 [oseltamivir]
mean day of death [1]: 12 and 9
survival rate [1]: 100%
survival [2]: succumbed to the infection
